Legend:
[1] = In vitro CT imaging in multimodal phantom; conditions: 120 kV, 300 mA
Method: In vitro contrast efficacy was determined by imaging the liposome formulated signal modifying agents at varying concentrations in both CT and MR, using a multimodal imaging phantom. To minimize the amount of agent leakage from liposomes, in vitro imaging scans were performed immediately following the removal of free agents by dialysis. […] The mean attenuation in Hounsfield units was measured using circular regions of interest (ROI). Attenuation values were then plotted against signal modifying agent concentrations using linear regression analysis.

[2] = In vitro MR imaging in multimodal phantom
Text: The phantom and the vials were filled to capacity to minimize air-induced susceptibility artefacts. Scans were produced using a T1 weighted spin echo sequence with a repetition time (TR) of 400 ms, an echo time (TE) of 9 ms, a slice thickness of 3 mm, a FOV of 1 9.9×19.9 cm and an image carrier of 256×192 pixels. The relative signal intensity was taken over the ROI. Solutions of free signal modifying agents were also imaged as controls in both modalities.

[3] = In vitro relaxometry (r1, r2); format: physicochemical; conditions: 20° C., 1.5 T, versus gadolinium concentration (free iohexol: [I])
Method: All in vitro relaxometry measurements were performed at 20° C. on a 1.5 Tesla, 20-cm-bore superconducting magnet (Nalorac Cryogenics Corp., Martinez, Calif.) controlled by an SMIS spectroscopy console (SMIS, Surrey, UK). The T1 relaxation time data were acquired using an inversion recovery (IR) sequence (45) with 35 inversion recovery time (TI) values logarithmically spaced from 1 to 32000 ms. A 10 second delay was given between each acquisition and the next inversion pulse. […] For every measurement 2000 even echoes were sampled with 8 averages. The effects of any residual transverse magnetization following the off-resonance irradiation was removed by phase-cycling the π/2 pulse (−x/x).
The T1 relaxation data were analyzed assuming mono-exponential behaviour
[formula] where S is the signal observed, M0 is the magnetization at equilibrium, t is time and T1 is the longitudinal relaxation time). All T2 decay data were plotted to a one component T2 model with a Gaussian fit on a logarithmic time scale. The r1 and r2 values were calculated from linear regression analysis of 1/T1 and 1/T2 relaxation rates versus gadolinium concentration.

| r1 ([3]; listed as iohexyl) [s^−1mmol^−1L] | Compound | CT attenuation (linear regression) [1] | peak differential signal intensities with respect to water in MR ([2]; gadolinium 1 to 9 mmol/L) [SI] | r1 [3] [s^−1mmol^−1L] | r2 [3] [s^−1mmol^−1L] | r1 ([3]; listed as unencapsulated gadoteridol) [s^−1mmol^−1L] | average differential signal intensity in MR relative to water ([2]; iodine 0 to 17 mmol/L) [SI] |
| --- | --- | --- | --- | --- | --- | --- | --- |
| – | CC(O)CN1CCN(CC(=O)[O-])CCN(CC(=O)[O-])CCN(CC(=O)[O-])CC1.[Gd+3] (stereo not shown) [Free Gadoteridol, gadolinium complex of 10-(2-hydroxy-propyl)-1,4,7,10-tetraazacyclododecane-1,4,7-triacetic acid] | 11.1±0.5 HU/(mg of gadolinium) in 1 mL of HBS | > 600 | 5.14 ± 0.06 | 6.21 ± 0.08 | 5.1 | – |
| 0.0 | CC(=O)N(CC(O)CO)c1c(I)c(C(=O)NCC(O)CO)c(I)c(C(=O)NCC(O)CO)c1I (stereo not shown) [Free Iohexol, iohexyl] | 29.0±0.4 HU/(mg of iodine) in 1 mL of HBS | – | 0.00 ± 0.00 | 0.01 ± 0.01 | – | 1.8±7.1 |
